The record followed here is patent US12692264B2, “Pyrimidine or pyridine derivative, preparation method therefor, and application thereof in pharmacy” (ABBISKO THERAPEUTICS CO., LTD., priority 2021, dated 2026).

pIC50: −log10 of the molar value.

Common to all, as to format: cell-based
The target in experiment [1] is Ba/F3 EGFR-V769_D770insASV (Homo sapiens, UniProt P00533, DUP767-769, cells depend on it). Briefly: Cell proliferation study (CellTiter-Glo, 72 hrs), Ba/F3 EGFR-V769_D770insASV. Conditions: CTG, * = average of multiple measurements, read-out: Ba/F3 EGFR-V769_D770insASV IC50. The gist of the method: (§1)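 Cells were seeded overnight, then exposed for 72 hrs at 37 °C, 5% CO2 to 9 concentrations in 3.16-fold steps, 0.1% DMSO final, triplicate wells. Viability was read by CellTiter-Glo luminescence, with a T0 plate read at dosing. IC50 came from nonlinear sigmoidal dose-response fits.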

In experiment [2] the target is Ba/F3 EGFR-D770-N771ins_SVD (Homo sapiens, UniProt P00533, DUP768-770, cells depend on it). The experiment can be described thus: Cell proliferation study (CellTiter-Glo, 72 hrs), Ba/F3 EGFR-D770-N771ins_SVD. Conditions: CTG, * = average of multiple measurements, read-out: Ba/F3 EGFR-D770-N771ins_SVD IC50. The essentials: as §1
The test system of experiment [3] is A431 (EGFR-WT). The experiment can be described thus: Cell proliferation study (CellTiter-Glo, 72 hrs), A431. Conditions: Homo sapiens, A-431, A431 cells, CTG, * = average of multiple measurements. The essentials:
as §1
(Cellular ATP, detected with luciferase, serves as a proxy for viable cell number.)

Ba/F3 EGFR-V769_D770insASV, sequence (P00533 with tags, fused parts or gaps DUP767-769): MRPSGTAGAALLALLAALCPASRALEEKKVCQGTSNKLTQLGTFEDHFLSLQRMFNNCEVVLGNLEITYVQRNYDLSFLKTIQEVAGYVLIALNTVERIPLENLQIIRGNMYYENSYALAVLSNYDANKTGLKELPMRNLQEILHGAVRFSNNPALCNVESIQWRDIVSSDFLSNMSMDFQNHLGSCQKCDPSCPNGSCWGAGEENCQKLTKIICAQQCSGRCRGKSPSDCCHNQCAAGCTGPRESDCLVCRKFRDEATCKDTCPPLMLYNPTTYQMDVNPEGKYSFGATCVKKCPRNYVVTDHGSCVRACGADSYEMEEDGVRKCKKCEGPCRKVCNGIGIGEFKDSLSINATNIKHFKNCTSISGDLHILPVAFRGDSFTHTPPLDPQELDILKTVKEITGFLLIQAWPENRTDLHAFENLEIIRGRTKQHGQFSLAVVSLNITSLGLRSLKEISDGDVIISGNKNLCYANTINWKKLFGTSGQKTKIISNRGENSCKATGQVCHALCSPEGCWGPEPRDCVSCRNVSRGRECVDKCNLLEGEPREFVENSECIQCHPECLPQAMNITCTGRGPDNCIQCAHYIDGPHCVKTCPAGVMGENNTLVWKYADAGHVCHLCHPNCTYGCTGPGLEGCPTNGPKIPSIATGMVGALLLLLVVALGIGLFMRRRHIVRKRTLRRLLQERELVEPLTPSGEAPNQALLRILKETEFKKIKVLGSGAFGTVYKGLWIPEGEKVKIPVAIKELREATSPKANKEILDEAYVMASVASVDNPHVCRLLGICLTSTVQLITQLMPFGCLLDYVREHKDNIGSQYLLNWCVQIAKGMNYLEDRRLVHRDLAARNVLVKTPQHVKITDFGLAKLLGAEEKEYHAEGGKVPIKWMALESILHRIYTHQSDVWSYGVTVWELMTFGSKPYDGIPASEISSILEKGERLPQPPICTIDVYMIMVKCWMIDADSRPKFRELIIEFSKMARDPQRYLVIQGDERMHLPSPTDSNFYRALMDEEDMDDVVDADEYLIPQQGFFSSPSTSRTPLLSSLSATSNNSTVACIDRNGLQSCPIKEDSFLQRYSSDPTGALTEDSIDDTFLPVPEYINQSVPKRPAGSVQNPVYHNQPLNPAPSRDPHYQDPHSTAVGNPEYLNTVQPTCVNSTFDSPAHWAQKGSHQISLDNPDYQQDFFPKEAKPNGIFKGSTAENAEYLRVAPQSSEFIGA
Ba/F3 EGFR-D770-N771ins_SVD, sequence (P00533 with tags, fused parts or gaps DUP768-770): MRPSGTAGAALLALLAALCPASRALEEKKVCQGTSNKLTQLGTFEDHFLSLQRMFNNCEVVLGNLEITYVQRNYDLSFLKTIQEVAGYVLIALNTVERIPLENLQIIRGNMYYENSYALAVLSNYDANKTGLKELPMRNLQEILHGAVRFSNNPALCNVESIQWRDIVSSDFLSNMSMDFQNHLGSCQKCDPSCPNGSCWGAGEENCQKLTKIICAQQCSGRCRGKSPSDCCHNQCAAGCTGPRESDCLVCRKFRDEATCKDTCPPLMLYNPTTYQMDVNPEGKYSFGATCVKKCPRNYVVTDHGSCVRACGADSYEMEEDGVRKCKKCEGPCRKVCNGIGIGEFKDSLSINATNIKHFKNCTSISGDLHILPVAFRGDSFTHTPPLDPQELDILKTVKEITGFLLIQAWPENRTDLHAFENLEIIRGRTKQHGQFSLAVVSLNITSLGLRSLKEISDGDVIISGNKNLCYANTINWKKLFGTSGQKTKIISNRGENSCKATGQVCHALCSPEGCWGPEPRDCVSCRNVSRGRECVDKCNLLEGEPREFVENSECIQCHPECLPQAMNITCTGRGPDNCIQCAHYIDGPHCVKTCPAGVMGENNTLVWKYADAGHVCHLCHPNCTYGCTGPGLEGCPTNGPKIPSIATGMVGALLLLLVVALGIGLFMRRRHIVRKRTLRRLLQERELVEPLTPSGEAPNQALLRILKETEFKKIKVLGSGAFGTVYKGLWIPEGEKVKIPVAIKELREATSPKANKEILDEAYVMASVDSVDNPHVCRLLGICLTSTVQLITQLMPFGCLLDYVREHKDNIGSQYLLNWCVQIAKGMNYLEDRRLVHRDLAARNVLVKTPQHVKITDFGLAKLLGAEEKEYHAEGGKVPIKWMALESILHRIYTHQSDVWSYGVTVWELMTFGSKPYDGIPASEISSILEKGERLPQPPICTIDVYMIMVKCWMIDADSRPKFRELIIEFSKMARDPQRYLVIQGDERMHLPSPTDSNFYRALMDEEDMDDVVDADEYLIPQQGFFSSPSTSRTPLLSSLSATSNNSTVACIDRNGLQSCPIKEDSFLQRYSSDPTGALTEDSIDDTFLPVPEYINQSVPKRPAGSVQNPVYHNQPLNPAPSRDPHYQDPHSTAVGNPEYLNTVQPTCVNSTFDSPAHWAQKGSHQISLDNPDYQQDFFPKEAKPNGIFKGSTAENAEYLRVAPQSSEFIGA

One may read the pIC50 as the negative decadic logarithm of the IC50, by convention in mol/L. Low readings indicate a large IC50, high ones a small IC50. Take `C=CC(=O)Nc1cc(Nc2ncc(C(=O)OC(C)C)c(N3CC(C)(C)c4ccccc43)n2)c(OC)cc1N(C)CCN(C)C` [Example 85, isopropyl 2-((5-acrylamido-4-((2-(dimethylami-no)ethyl)(methyl)amino)-2-methoxy-phenyl)amino)-4-(3,3-dimethylindolin-1-yl)pyrimidine-5-carboxylate]: the GI50 in experiment [1] worked out at 13.8 nM; in experiment [2], 23.6 nM. This compound also had a pIC50 in experiment [3] of 6.25.

Take `C=CC(=O)Nc1cc(Nc2ncc(C(=O)OC(C)C)c(N3CC4(CC4)c4ncccc43)n2)c(OC)cc1N1CCC[C@@H]1CN(C)C` [Example 86, isopropyl (R)-2-((5-acrylamido-4-(2-((dimethyl-amino)methyl)pyrrolidin-1-yl)-2-meth-oxyphenyl)amino)-4-(spiro(cyclopro-pane-1,3′-pyrrolo[3,2-b]pyridin)-1′(2′H)-yl)pyrimidine-5-carboxylate]: the GI50 was determined as 8 nM in experiment [1] and 9.8 nM in experiment [2]. The pIC50 in experiment [3] is 7.85.

For `C=CC(=O)Nc1cc(Nc2ncc(C(=O)OC(C)C)c(N3CC(C)(C)c4ccccc43)n2)c(OC)cc1N1C[C@@H](F)C[C@@H]1CN(C)C` [Example 87, isopropyl 2-((5-acrylamido-4-((2R,4S)-2-((di-methylamino)methyl)-4-fluoro-pyrrolidin-1-yl)-2-methoxy-phenyl)amino)-4-(3,3-dimethyl-indolin-1-yl)pyrimidine-5-carboxylate], the GI50 in experiment [1] stood at 12.5 nM; in experiment [2], 25.8 nM. This compound also had a pIC50 in experiment [3] of 7.24.

Regarding `C=CC(=O)Nc1cc(Nc2ncc(C(=O)OC(C)C)c(N3CC(C)(C)c4ncccc43)n2)c(OC)cc1N1C[C@@H](F)C[C@@H]1CN(C)C` [Example 88, isopropyl 2-((5-acrylamido-4-((2R,4S)-2-((di-methylamino)methyl)-4-fluoro-pyrrolidin-1-yl)-2-methoxy-phenyl)amino)-4-(3,3-dimethyl-2,3-dihydro-1H-pyrrolo[3,2-b]pyridin-1-yl)pyrimidine-5-carboxylate], the GI50 in experiment [1] is 9.2 nM; in experiment [2], 15.4 nM. In experiment [3], this compound showed a pIC50 of 7.68.

With `C=CC(=O)Nc1cc(Nc2ncc(C(=O)OC(C)C)c(N3CC(C)(C)c4nc(C#CC)ccc43)n2)c(OC)cc1N(C)CCN(CC)CC` [Example 89, isopropyl 2-((5-acrylamido-4-((2-(diethyl-amino)ethyl)(methyl)amino)-2-methoxyphenyl)amino)-4-(3,3-dimethyl-5-(prop-1-yn-1-yl)-2,3-dihydro-1H-pyrrolo[3,2-b]pyridin-1-yl)pyrimidine-5-carboxylate], the GI50 was 242 nM in experiment [1] and 13.1 nM in experiment [2]. The compound further gave a pIC50 in experiment [3] of 6.75.

As to `C=CC(=O)Nc1cc(Nc2ncc(C(=O)OC(C)C)c(N3CC(C)(C)c4cc(F)c(F)cc43)n2)c(OC)cc1N(C)CCN(C)C` [Example 91, isopropyl 2-((5-acrylamido-4-((2-(dimethylami-no)ethyl)(methyl)amino)-2-methoxy-phenyl)amino)-4-(5,6-difluoro-3,3-dimethylindolin-1-yl)pyrimidine-5-carboxylate], the GI50 in experiment [1] was 32.2 nM; in experiment [2] it was 37.5 nM. In experiment [3], this compound gave a pIC50 of 5.97.

For the compound `C=CC(=O)Nc1cc(Nc2ncc(C(=O)OC(C)C)c(N3CC(C)(C)c4cc(F)c(F)cc43)n2)c(OC)cc1N1CCC[C@@H]1CN(C)C` [Example 92, isopropyl (R)-2-((5-acrylamido-4-(2-((dimethyl-amino)methyl)pyrrolidin-1-yl)-2-meth-oxyphenyl)amino)-4-(5,6-difluoro-3,3-dimethylindolin-1-yl)pyrimidine-5-carboxylate], the GI50 in experiment [1] came out at 27.9 nM; in experiment [2], 33.2 nM. Also, the pIC50 in experiment [3] is 6.02.

Consider `C=CC(=O)Nc1cc(Nc2ncc(C(=O)OC(C)C)c(N3CC(C)(C)c4cc(F)c(F)cc43)n2)c(OC)cc1N1C[C@@H](F)C[C@@H]1CN(C)C` [Example 93, isopropyl 2-((5-acrylamido-4-((2R,4S)-2-((di-methylamino)methyl)-4-fluoro-pyrrolidin-1-yl)-2-methoxy-phenyl)amino)-4-(5,6-difluoro-3,3-dimethylindolin-1-yl)pyrimidine-5-carboxylate], for which the GI50 in experiment [1] was 28.8 nM; in experiment [2], 34.6 nM. In addition, in experiment [3], the pIC50 is 6.11.
